ChEMBL document CHEMBL1201862, “PubChem BioAssay data set” (2004)
Activity calls are given as the source filed them.

Legend:
[1] = Trypanosoma cruzi growth suppression in host cells – NIH3T3 host cells, beta-gal luminescence, confirmation (AID 2044); assay type: functional, cell-based;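 further: intracellular parasites grown in NIH/3T3 mouse fibroblasts as host cells; luminescent beta-galactosidase reporter signal from transgenic T. cruzi replicating inside host cells; inhibitors lower the luminescence signal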
[2] = system: Vero; experiment: cells; assay type: functional; conditions: Chlorocebus sabaeus
[3] = target: T1, Heat shock factor protein 1 (Mus musculus, UniProt P38532); experiment: enhancement of HSF1-driven luciferase signal – cell-based, NIH3T3, luminescence, dose retest, confirmation (AID 435004); assay type: functional;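 further: stress induced by proteasome inhibitor MG132 added 30 min after compound; luciferase reporter driven by HSF1 response element in NIH3T3 cells; actives raise luminescence as potentiators of the MG132 stress response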
T1 sequence (P38532 whole entry): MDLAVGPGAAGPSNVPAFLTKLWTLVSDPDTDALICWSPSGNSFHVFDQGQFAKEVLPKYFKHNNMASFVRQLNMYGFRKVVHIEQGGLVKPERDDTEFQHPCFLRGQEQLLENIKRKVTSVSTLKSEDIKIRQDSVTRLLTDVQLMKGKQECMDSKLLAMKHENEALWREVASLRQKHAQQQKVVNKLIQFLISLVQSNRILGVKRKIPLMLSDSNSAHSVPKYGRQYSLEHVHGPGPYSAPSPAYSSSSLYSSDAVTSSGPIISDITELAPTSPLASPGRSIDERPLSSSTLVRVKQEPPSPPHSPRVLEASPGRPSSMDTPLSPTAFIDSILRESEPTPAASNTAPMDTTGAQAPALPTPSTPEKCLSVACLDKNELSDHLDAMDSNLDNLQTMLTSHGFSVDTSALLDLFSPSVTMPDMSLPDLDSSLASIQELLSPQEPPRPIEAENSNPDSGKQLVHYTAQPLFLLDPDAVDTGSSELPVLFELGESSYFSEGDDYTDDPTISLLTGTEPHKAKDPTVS

[4] = NIH3T3 cell viability loss – ATP luminescence, mouse fibroblasts, counter-screen, dose response (AID 2010); assay type: functional, cell-based;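 further: cells exposed to compound for about 90 hours before reading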
[5] = target: Genome polyprotein (dengue virus type 2, UniProt P29990); experiment: flavivirus cap methylation enzyme inhibition – biochemical, confirmation dose response, primary screen (AID 588689); assay type: functional
[6] = target: T2, Polyadenylate-binding protein 1 (Homo sapiens, UniProt P11940); experiment: MLLE binding blockers, Cy5 peptide tracer – biochemical, fluorescence polarization, Cy5-PAM2 peptide, secondary, miRNA deadenylation inhibitor project, dose response (AID 602260); assay type: functional; conditions: read-out: IC50_Mean
[7] = target: T2, Polyadenylate-binding protein 1; experiment: MLLE domain peptide-binding blockers, IC50 – biochemical, fluorescence polarization, FITC-PAM2 peptide, dose response (AID 602259); assay type: functional; conditions: read-out: IC50_Mean
[8] = system: Vero; experiment: viability of Vero cells under compound – cytotoxicity control for flavivirus capping enzyme inhibitors (AID 588742); assay type: functional; conditions: Chlorocebus sabaeus
[9] = target: Heat shock protein HSP 90-alpha (Homo sapiens, UniProt P07900); assay type: functional, organism-based
[10] = Luminescence Cell-Based Dose Retest to Confirm Inhibitors of Cancer Stem Cells. [Related pubchem assays (depositor defined):AID2717, AID2721]; assay type: functional; conditions: Homo sapiens
[11] = target: T3, High affinity choline transporter 1 (Homo sapiens, UniProt Q9GZV3); experiment: human choline transporter blockers, potency – cell-based, 5-point CRC, membrane potential dye, dose response (AID 504840); assay type: functional
T3 sequence (Q9GZV3 whole entry): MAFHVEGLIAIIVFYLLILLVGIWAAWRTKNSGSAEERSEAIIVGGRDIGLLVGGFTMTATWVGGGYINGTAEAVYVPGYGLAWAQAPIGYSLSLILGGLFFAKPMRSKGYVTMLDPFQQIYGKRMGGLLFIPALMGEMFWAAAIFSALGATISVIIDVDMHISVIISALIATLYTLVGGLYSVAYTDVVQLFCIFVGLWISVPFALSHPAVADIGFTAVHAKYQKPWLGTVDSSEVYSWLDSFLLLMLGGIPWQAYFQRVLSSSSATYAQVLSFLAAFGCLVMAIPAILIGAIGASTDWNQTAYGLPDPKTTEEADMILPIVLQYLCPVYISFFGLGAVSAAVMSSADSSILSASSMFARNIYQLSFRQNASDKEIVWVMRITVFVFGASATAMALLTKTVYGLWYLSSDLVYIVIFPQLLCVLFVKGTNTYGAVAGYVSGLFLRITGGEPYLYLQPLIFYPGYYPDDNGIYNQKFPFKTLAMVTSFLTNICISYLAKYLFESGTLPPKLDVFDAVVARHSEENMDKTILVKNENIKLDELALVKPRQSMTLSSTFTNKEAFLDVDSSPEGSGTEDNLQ

[12] = target: T4, Galanin receptor type 3 (Homo sapiens, UniProt O60755); experiment: Fluorescence-based cell-based primary high throughput dose response assay to identify antagonists of the Galanin Receptor 3 (GalR3).; assay type: functional
T4 sequence (O60755 whole entry): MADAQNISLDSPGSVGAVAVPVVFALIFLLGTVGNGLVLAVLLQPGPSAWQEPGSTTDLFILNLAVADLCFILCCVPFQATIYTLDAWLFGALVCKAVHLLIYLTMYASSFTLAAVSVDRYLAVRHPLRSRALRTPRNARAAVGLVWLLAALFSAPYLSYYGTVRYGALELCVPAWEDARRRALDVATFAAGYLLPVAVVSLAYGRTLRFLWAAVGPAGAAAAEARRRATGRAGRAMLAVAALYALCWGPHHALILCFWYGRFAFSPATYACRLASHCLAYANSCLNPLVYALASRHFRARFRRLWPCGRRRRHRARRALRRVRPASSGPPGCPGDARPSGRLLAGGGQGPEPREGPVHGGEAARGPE

[13] = cells; assay type: functional, cell-based; conditions: HEK-CNG
[14] = system: CHO-K1; experiment: (§1) Counterscreen for antagonists of the orexin 1 receptor (OX1R; HCRTR1): Homogeneous time resolved fluorescence (HTRF)-based cell-based dose response assay to identify antagonists of the parental CHO-K1 cell line. [Related pubchem assays (depositor defined):AID434989, AID435008, AID463079, AID485270, AID492963, AID492964, AID492965, AID493232, AID504699, AID504701]; assay type: functional; conditions: Cricetulus griseus
[15] = target: T5, Orexin/Hypocretin receptor type 1 (Homo sapiens, UniProt O43613); experiment: Homogeneous Time Resolved Fluorescence (HTRF)-based cell-based high throughput dose response assay for antagonists of the orexin 1 receptor (OX1R; HCRTR1). [Related pubchem assays (depositor defined):AID434989, AID435008, AID463079, AID485270, AID492963, AID492964, AID492965, AID493232, AID504717, AID504718]; assay type: functional
T5 sequence (O43613 whole entry): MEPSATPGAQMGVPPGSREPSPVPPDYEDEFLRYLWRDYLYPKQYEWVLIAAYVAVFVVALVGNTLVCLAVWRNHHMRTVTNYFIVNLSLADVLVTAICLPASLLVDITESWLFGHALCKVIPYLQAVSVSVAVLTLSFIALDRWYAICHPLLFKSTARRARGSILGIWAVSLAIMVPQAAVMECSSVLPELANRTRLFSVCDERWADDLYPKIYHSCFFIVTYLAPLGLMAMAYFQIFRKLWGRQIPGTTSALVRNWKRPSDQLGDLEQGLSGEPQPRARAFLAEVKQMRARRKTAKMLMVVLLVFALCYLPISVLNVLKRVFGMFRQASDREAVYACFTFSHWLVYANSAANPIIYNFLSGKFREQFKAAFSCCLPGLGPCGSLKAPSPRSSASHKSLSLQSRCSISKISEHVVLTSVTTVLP

[16] = target: T6, Orexin receptor type 2 (Homo sapiens, UniProt O43614); experiment: Counterscreen assay for antagonists of the orexin 1 receptor (OX1R; HCRTR1): Fluorescence-based cell-based dose response assay for antagonists of the orexin 2 receptor (OX2R; HCRTR2), run by assay provider.; assay type: functional
T6 sequence (O43614 whole entry): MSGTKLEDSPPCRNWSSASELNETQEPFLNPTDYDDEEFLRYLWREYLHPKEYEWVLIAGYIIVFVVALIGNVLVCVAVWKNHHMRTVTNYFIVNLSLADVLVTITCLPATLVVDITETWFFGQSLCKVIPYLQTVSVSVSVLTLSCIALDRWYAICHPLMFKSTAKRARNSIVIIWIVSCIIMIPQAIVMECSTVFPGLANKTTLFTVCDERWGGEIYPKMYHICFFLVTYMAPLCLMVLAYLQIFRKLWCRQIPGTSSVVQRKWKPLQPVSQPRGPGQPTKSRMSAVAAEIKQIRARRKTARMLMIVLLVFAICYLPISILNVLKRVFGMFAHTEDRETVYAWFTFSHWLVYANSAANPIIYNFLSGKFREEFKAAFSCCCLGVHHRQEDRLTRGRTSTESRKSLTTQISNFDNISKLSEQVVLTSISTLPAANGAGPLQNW

[17] = as §1, with “Fluorescence-based” for “Homogeneous time resolved fluorescence (HTRF)-based”, “cell-based high throughput” for “cell-based”, “CHO” for “CHO-K1”; assay type: functional
[18] = target: T6, Orexin receptor type 2; experiment: Counterscreen assay for antagonists of the orexin 1 receptor (OX1R; HCRTR1): Homogeneous Time Resolved Fluorescence (HTRF)-based cell-based dose response assay for antagonists of the orexin 2 receptor (OX2R; HCRTR2), run by assay provider.; assay type: functional
[19] = target: T5, Orexin/Hypocretin receptor type 1; experiment: Fluorescence-based cell-based high throughput dose response assay for antagonists of the orexin 1 receptor (OX1R; HCRTR1). [Related pubchem assays (depositor defined):AID434989, AID435008, AID463079, AID485270, AID492963, AID492964, AID492965, AID493232, AID504717, AID504718]; assay type: functional
[20] = target: T7, DNA repair and recombination protein RAD54-like (Homo sapiens, UniProt Q92698); experiment: RAD54 Holliday junction migration blockers – biochemical, fluorescence, cherry-picked samples, dose series, confirmation (AID 651657); assay type: functional
T7 sequence (Q92698 whole entry): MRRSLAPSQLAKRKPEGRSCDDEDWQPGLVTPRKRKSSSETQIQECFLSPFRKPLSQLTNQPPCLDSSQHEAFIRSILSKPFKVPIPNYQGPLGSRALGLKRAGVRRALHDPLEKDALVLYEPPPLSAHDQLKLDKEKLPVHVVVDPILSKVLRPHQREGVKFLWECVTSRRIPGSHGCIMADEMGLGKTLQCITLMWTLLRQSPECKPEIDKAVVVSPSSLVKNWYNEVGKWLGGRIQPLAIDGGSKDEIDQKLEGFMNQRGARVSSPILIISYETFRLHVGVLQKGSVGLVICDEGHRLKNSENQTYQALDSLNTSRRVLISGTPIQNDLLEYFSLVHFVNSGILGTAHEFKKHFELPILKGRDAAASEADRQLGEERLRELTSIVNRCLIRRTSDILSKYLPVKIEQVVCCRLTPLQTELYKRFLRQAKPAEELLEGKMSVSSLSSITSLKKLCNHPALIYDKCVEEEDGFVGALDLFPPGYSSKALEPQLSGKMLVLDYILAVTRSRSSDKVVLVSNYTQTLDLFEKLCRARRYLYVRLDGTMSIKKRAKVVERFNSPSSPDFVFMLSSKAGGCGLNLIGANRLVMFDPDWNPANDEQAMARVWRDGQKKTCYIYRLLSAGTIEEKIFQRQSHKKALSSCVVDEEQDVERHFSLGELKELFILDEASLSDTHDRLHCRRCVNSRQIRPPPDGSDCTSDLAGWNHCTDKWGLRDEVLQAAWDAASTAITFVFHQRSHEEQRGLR

T2 sequence (P11940 whole entry, the tested form may be a part): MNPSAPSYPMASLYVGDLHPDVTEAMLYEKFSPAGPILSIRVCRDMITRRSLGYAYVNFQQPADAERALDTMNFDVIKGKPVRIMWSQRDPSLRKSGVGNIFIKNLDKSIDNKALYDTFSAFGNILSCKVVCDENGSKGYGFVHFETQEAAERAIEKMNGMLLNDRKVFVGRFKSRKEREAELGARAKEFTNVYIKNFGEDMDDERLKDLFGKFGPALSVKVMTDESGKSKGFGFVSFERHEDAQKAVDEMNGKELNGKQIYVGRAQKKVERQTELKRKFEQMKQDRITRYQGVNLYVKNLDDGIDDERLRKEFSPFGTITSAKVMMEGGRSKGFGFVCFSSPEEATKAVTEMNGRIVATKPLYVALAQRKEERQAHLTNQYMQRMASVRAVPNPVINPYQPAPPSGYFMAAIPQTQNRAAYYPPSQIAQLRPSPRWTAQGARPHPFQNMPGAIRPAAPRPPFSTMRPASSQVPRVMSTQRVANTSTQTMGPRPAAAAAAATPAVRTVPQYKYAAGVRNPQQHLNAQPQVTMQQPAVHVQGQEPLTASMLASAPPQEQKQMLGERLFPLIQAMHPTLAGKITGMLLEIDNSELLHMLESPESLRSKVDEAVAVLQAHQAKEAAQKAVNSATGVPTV
Sequence of Genome polyprotein (P29990 2492-3391 limits assumed): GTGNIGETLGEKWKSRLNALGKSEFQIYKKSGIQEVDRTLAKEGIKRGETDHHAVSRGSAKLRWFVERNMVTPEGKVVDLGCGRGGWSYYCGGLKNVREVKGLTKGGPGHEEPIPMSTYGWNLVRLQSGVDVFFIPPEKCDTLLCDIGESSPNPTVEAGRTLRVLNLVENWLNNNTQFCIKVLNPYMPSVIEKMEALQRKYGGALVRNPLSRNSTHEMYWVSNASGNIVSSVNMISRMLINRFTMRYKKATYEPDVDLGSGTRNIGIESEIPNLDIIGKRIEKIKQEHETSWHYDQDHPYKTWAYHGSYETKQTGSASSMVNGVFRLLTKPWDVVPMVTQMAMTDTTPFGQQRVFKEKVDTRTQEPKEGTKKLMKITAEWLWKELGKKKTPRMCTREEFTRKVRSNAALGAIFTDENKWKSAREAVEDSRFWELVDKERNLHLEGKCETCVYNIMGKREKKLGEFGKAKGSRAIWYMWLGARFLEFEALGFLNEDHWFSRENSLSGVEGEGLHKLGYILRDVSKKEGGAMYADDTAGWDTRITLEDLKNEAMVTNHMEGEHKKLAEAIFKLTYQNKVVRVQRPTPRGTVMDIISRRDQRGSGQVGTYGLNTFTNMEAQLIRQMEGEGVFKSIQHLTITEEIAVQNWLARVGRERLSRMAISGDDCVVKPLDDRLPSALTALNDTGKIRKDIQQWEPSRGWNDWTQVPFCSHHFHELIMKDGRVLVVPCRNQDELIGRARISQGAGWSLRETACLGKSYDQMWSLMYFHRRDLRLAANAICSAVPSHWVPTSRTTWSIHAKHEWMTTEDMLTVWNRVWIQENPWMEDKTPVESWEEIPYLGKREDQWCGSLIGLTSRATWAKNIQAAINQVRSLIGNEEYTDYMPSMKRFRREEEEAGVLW

| SMILES | IC50 [11] | IC50 [14] | IC50 [15] | IC50 [16] | IC50 [17] | IC50 [18] | IC50 [19] | further results |
| --- | --- | --- | --- | --- | --- | --- | --- | --- |
| CC(C)(C)c1ccc(C(=O)CC(Sc2ccc(Cl)cc2)C(=O)O)cc1 (configuration not stated) | 12.6 µM (active) |  |  |  |  |  |  | EC50 [1]: 2.02 µM (active); CC50 [2]: 23.2 µM (active); EC50 [3]: 137 µM (active); EC50 [4]: > 60 µM (not active); IC50 [5]: 38.1 µM (active); IC50 [6]: > 66 µM (inactive); IC50 [7]: > 66 µM (inactive); CC50 [8]: 35.9 µM (active); AC50 [9]: 4.71 µM (active); AC50 [10]: 4.12 µM (active) |
| N#Cc1nc(N2CCCC2)nc(N2CCCC2)n1 |  |  |  |  |  |  |  | IC50 [12]: 1.81 µM (active); EC50 [13]: > 29.9 µM (inactive) |
| CCCCN(CCCC)CCNC(=O)c1cn(CC)c2ccc(S(=O)(=O)N(C)C3CCCCC3)cc2c1=O | 15.8 µM (active) |  |  |  |  |  |  |  |
| Cc1cc(C)n2nc(-c3cccc(Br)c3)cc2n1 |  | > 66.2 µM (inactive) | 2.05 µM (active) | > 88.8 µM (inactive) | > 49.7 µM (inactive) | > 50 µM (inactive) | 9.69 µM (active) |  |
| CCN1CCN(CCCNC(=O)c2cc3c(O)nc4ccccc4c3s2)CC1 |  |  |  |  |  |  |  | AC50 [20]: 46.5 µM (active) |
| Cc1noc(C)c1COC(=O)c1ccc2c(c1)S(=O)(=O)c1ccccc1C2=O |  | 18.5 µM (inactive) | 1.2 µM (active) | > 88.8 µM (inactive) | > 49.7 µM (inactive) | > 50 µM (inactive) | 4 µM (active) |  |
